One experiment addresses BRD4 (Homo sapiens, UniProt O60885). In words: BRD4 protein degradation by western blot in MDA-MB-231 cells. The experiment is classed as cell-based. On the set-up: BRD4 expressed in cells; endogenous in cells; host or cells: MDA-MB-231. The note with it: MDA-MB-231, 24 hours; for DC50: 50% inhibition of protein expression, read-out: DC50 of BRD4-targeted PROTAC. The procedure:
(§1) Human breast cancer cell line [MDA-MB-231] was cultured in RPMI medium with 10% petal bovine serum, penicillin [100 U/ml] and streptomycin [[…]]. The synthesized compound was prepared as a stock solution of 10 mM or 50 mM dissolved in DMSO [dimethyl sulfoxide], and it was sequentially diluted to treat the cell line.
To evaluate the PROTAC's degradation ability to BRD4 expressed in cells, the cells were aliquoted into a 6 well plate at a concentration of 5×10^5 cells/ml, and then the sample was treated for 24 hours. In order to conduct western blotting assay to confirm protein expression, the cell treated with the compound was treated for 30 minutes with 70 μL of RIPA buffer wherein protease inhibitor is added. Then, cell lysate was collected on ice using a scraper and centrifuged at 4° C. 15,000 rpm for 30 minutes to obtain a supernatant containing protein. Then, SDS-PAGE is conducted for 10 μg of protein per each sample, and the protein is transferred to a membrane. The protein is reacted with antibodies of anti-BRD4, anti-tubulin and anti-GAPDH at 4° C. for 16 hours, and then, reacted with secondary antibodies at room temperature for 1 hour. The protein expression is confirmed using SUPERSIGNAL™ WEST PICO PLUS chemiluminescence substrate and image analyzer. The protein expression was normalized based on the expression value of β-tublin or GAPDH. The amount of protein expression in each sample was measured in % based on the sample treated with 0.1% DMSO vehicle which was set to 100%. The amount of protein expression was quantified using the IMAGE J PROGRAM. The change in the amount of protein expression due to the treatment of compound (DC50: the concentration of compounds where the 50% inhibition of protein expression is achieved) was calculated using […] PRISM 8.0 software.

The test system of experiment [1] is Human breast cancer cell line [MDA-MB-231]. In words: Anti-proliferative activity (WST-8) of BRD4 targeted PROTAC in MDA-MB-231. The conditions noted are these: MDA-MB-231, 72 hours. Format: cell-based. The procedure:
as §1
In order to observe inhibition of cell growth, cells were aliquoted into concentrations of 5,000 cells/well at 96 well plates, and then were treated with samples prepared at various concentrations for 72 hours. The cell survival was calculated by steps of adding in each well […] of water soluble tetrazolium salt (WST-8) which produces formazon in response to dehydrogenase present in the electron transport chain in mitochondria, incubating for 2 hours, measuring the absorbance at 450 nm, and calculating by GraphicPad Prism 8.0 software.

Setting [2] is: Homo sapiens, WST-8, read-out: IC50 of BRD4-targeted PROTAC (cell proliferation).
Setting [3] is: Homo sapiens, read-out: concentration at which cancer cell proliferation is effectively inhibited.

The source of these data is US12384756B2, “Piperidinedione derivatives” (INNOCURE THERAPEUTICS, INC., priority 2021, dated 2025).

Read-outs that look alike come from different tables or passages of the source.

As for `Cc1sc2c(c1C)C(c1ccc(Cl)cc1)=N[C@@H](CC(=O)Nc1ccc(OCCOCCOCCOCCNc3ccc4cnn(C5CCC(=O)NC5=O)c(=O)c4c3)cc1)c1nnc(C)n1-2` (stereo partly drawn) [Ex. 29, 2-((S)-4-(4-chlorophenyl)-2,3,9-trimethyl-6H-thieno[3,2-f][1,2,4]triazolo[4,3-a][1,4]diazepin-6-yl)-N-(4-(2-(2-(2-(2-((3-(2,6-dioxopiperidin-3-yl)-4-oxo-3,4-dihydrophthalazin-6-yl)amino)ethoxy)ethoxy)ethoxy)ethoxy)phenyl)acetamide], the “BRD4 degradation (in words)” value on BRD4 is given as “effectively degraded”. The 50% degradation concentration (DC50) (usually the midpoint of the concentration-degradation curve) at BRD4 is 3.7 nM. Also, the IC50 is 98.6 nM in experiment [1] (setting [2]) and under 250 nM in experiment [1] (setting [3]).

On to `Cc1sc2c(c1C)C(c1ccc(Cl)cc1)=N[C@@H](CC(=O)NCCCN1CCN(CCCNc3cccc4cnn(C5CCC(=O)NC5=O)c(=O)c34)CC1)c1nnc(C)n1-2` (stereo partly drawn) [Example 38, 2-((S)-4-(4-chlorophenyl)-2,3,9-trimethyl-6H-thieno[3,2-f][1,2,4]triazolo[4,3-a][1,4]diazepin-6-yl)-N-(3-(4-(3-((3-(2,6-dioxopiperidin-3-yl)-4-oxo-3,4-dihydrophthalazin-5-yl)amino)propyl)piperazin-1-yl)propyl)acetamide], for which the DC50 at BRD4 was found to be 66.5 nM. Further, the IC50 in experiment [1] (setting [2]) amounted to 568 nM.

Regarding `Cc1sc2c(c1C)C(c1ccc(Cl)cc1)=N[C@@H](CC(=O)NCCOc1cccc3cnn(C4CCC(=O)NC4=O)c(=O)c13)c1nnc(C)n1-2` (stereo partly drawn) [Example 45, 2-((S)-4-(4-chlorophenyl)-2,3,9-trimethyl-6H-thieno[3,2-f][1,2,4]triazolo[4,3-a][1,4]diazepin-6-yl)-N-(2-((3-(2,6-dioxopiperidin-3-yl)-4-oxo-3,4-dihydrophthalazin-5-yl)oxy)ethyl)acetamide], the half-maximal degradation concentration (DC50) at BRD4 is 108 nM. The IC50 in experiment [1] (setting [2]) was over 1000 nM.

“N-(4-(2-(2,6-dioxopiperidin-3-yl)-1-oxo-1,2-dihydrophthalazin-6-yl)butyl)-2-((S)-2,3,9-trimethyl-4-phenyl-6H-thieno[3,2-f][1,2,4]triazolo[4,3-a][1,4]diazepin-6-yl)acetamide [Example 47]”: at BRD4, the DC50 is 52.3 nM. Also, the IC50 in experiment [1] (WST-8, read-out: IC50 of BRD4-targeted PROTAC (cell proliferation)) is 754 nM.

On to `Cc1sc2c(c1C)C(c1ccc(Cl)cc1)=N[C@@H](CC(=O)NCCN1CCN(c3ccc4c(=O)n(C5CCC(=O)NC5=O)ncc4c3)CC1)c1nnc(C)n1-2` (stereo partly drawn) [Example 48, 2-((S)-4-(4-chlorophenyl)-2,3,9-trimethyl-6H-thieno[3,2-f][1,2,4]triazolo[4,3-a][1,4]diazepin-6-yl)-N-(2-(4-(2-(2,6-dioxopiperidin-3-yl)-1-oxo-1,2-dihydrophthalazin-6-yl)piperazin-1-yl)ethyl)acetamide], for which, on BRD4, the “BRD4 degradation (in words)” value was “effectively degraded” and the half-maximal degradation concentration (DC50) worked out at 5.9 nM. Moreover, in experiment [1] (setting [2]), the IC50 was 2.15 nM. Besides, the IC50 in experiment [1] (setting [3]) was under 250 nM.

Take `Cc1sc2c(c1C)C(c1ccc(Cl)cc1)=N[C@@H](CC(=O)Nc1cccc(OCCOCCOCCNc3ccc4c(=O)n(C5CCC(=O)NC5=O)ncc4c3)c1)c1nnc(C)n1-2` (stereo partly drawn) [Example 41, 2-((S)-4-(4-chlorophenyl)-2,3,9-trimethyl-6H-thieno[3,2-f][1,2,4]triazolo[4,3-a][1,4]diazepin-6-yl)-N-(3-(2-(2-(2-((2-(2,6-dioxopiperidin-3-yl)-1-oxo-1,2-dihydrophthaazin-6-yl)amino)ethoxy)ethoxy)ethoxy)phenyl)acetamide]: at BRD4, the “BRD4 degradation (in words)” value is reported as “effectively degraded” and the half-maximal degradation concentration (DC50) stood at 4.4 nM. Also, the IC50 in experiment [1] (setting [2]) was found to be 137 nM. The IC50 in experiment [1] (setting [3]) is under 250 nM.

Turning to `Cc1sc2c(c1C)C(c1ccc(Cl)cc1)=N[C@@H](CC(=O)Nc1cccc(OCCOCCOCCNc3ccc4cnn(C5CCC(=O)NC5=O)c(=O)c4c3)c1)c1nnc(C)n1-2` (stereo partly drawn) [Example 42, 2-((S)-4-(4-chlorophenyl)-2,3,9-trimethyl-6H-thieno[3,2-f][1,2,4]triazolo[4,3-a][1,4]diazepin-6-yl)-N-(3-(2-(2-(2-((3-(2,6-dioxopiperidin-3-yl)-4-oxo-3,4-dihydrophthalazin-6-yl)amino)ethoxy)ethoxy)ethoxy)phenyl)acetamide], on BRD4, the “BRD4 degradation (in words)” value is listed as “effectively degraded” and the DC50 is 10.7 nM. The IC50 in experiment [1] (setting [2]) was 20.3 nM. The IC50 in experiment [1] (setting [3]) was under 250 nM.

For the compound `Cc1sc2c(c1C)C(c1ccc(Cl)cc1)=N[C@@H](CC(=O)Nc1cccc(OCCOCCOCCNc3cccc4c(C)nn(C5CCC(=O)NC5=O)c(=O)c34)c1)c1nnc(C)n1-2` (stereo partly drawn) [Example 39, 2-((S)-4-(4-chlorophenyl)-2,3,9-trimethyl-6H-thieno[3,2-f][1,2,4]triazolo[4,3-a][1,4]diazepin-6-yl)-N-(3-(2-(2-(2-((3-(2,6-dioxopiperidin-3-yl)-1-methyl-4-oxo-3,4-dihydrophthalazin-5-yl)amino)ethoxy)ethoxy)ethoxy)phenyl)acetamide], at BRD4, the “BRD4 degradation (in words)” value is reported as “effectively degraded” and the 50% degradation concentration (DC50) worked out at 0.575 nM. In experiment [1] (setting [2]), the IC50 is under 1 nM. Further, in experiment [1] (setting [3]), the IC50 was under 250 nM.

Take `Cc1sc2c(c1C)C(c1ccc(Cl)cc1)=N[C@@H](CC(=O)NCCCCCNc1ccc3c(=O)n(C4CCC(=O)NC4=O)ncc3c1)c1nnc(C)n1-2` (stereo partly drawn) [Example 37, 2-((S)-4-(4-chlorophenyl)-2,3,9-trimethyl-6H-thieno[3,2-f][1,2,4]triazolo[4,3-a][1,4]diazepin-6-yl)-N-(5-((2-(2,6-dioxopiperidin-3-yl)-1-oxo-1,2-dihydrophthalazin-6-yl)amino)pentyl)acetamide]: on BRD4, the “BRD4 degradation (in words)” value is recorded as “effectively degraded” and the DC50 came to 0.173 nM. Also, the IC50 in experiment [1] (setting [2]) is under 1 nM. The IC50 in experiment [1] (setting [3]) was under 250 nM.

As to `Cc1sc2c(c1C)C(c1ccc(Cl)cc1)=N[C@@H](CC(=O)NCC#Cc1ccc3c(=O)n(C4CCC(=O)NC4=O)ncc3c1)c1nnc(C)n1-2` (stereo partly drawn) [Example 40, 2-((S)-4-(4-chlorophenyl)-2,3,9-trimethyl-6H-thieno[3,2-f][1,2,4]triazolo[4,3-a][1,4]diazepin-6-yl)-N-(3-(2-(2,6-dioxopiperidin-3-yl)-1-oxo-1,2-dihydrophthalazin-6-yl)prop-2-yn-1-yl)acetamide], at BRD4, the “BRD4 degradation (in words)” value is given as “effectively degraded” and the DC50 was 10.9 nM. Also, the IC50 in experiment [1] (setting [2]) was 227 nM. The IC50 in experiment [1] (setting [3]) is under 250 nM.
